Data: a melting point compilation (Tetko et al.; mined from patent text by program, amines drawn as free bases though some values may be those of a salt)

Row | Structure (SMILES) | melting point [°C]
1 | CC(=NO)C1CCC2C3CC=C4C(C)(C)C(=O)C(C#N)CC4(C)C3CCC12C (centres undefined) | 190 to 192
2 | CC(C)(O)CCOc1c(-c2ccc(S(N)(=O)=O)cc2)cnn(-c2ccc(F)c(F)c2)c1=O | 181
3 | COc1ccc2c(c1)/C(=C/C#N)CC2 | 95 to 96
4 | NC(=O)c1cccc(C=CC(=O)O)c1 | > 260
5 | COc1ccc(-c2ccc(C(N)=O)cc2)cc1-c1cccc([N+](=O)[O-])c1 | 201 to 205
6 | O=c1oc(-c2ccc3c(c2)OCCO3)cc(O)c1C(CC1CC1)SC1CCCC1 (centres undefined) | 80 to 82
7 | O=C(c1c(F)cccc1F)N1CSCN(c2ccc(Cl)cc2)C1=O | 128 to 130
8 | O=C(O)C1=Cc2cc(Cl)c(Cl)c(Cl)c2OC1C(F)(F)F (centres undefined) | 222 to 225
9 | O=C(CCCCCCCCCCBr)Nc1ccc(O)cc1 | 116 to 117
10 | Cc1cc2c3c(cc(C)c2[nH]c1=O)CC(CBr)O3 (centres undefined) | 277 to 278
11 | Cn1c(=O)nc(-c2ccccc2Cl)c2cc(Cl)sc21 | 164 to 166
12 | CCOC(=O)CCC1Cc2cc(O)ccc2NC1=O (centres undefined) | 138
13 | O=C1c2ccccc2-c2cc(O)c(Cl)c(Cl)c21 | 276 to 284
14 | CC(C)(C)OC(=O)NC12CC3CC(CC(O)(C3)C1)C2 | 131 to 132
15 | NC(=O)COc1ccc2sc(S(N)(=O)=O)cc2c1 | 197 to 198
16 | CC1(C)OCCC2C(C3(O)CCSC3)C(=O)N21 (centres undefined) | 113 to 115
17 | COc1cc(NC(=O)Nc2c(-c3ccccc3C)c3cc(C)c(C)cc3oc2=O)cc(OC)c1OC(C)=O | 238 to 240
18 | CCCc1c(C(=O)C(C)C)c2ccc(C(=O)O)cc2n1Cc1ccc(F)cc1Cl | 243 to 244
19 | O=C(O)C1=Cc2ccccc2OC1C(F)(F)F (centres undefined) | 152 to 153
20 | CC(=NNc1ccc([N+](=O)[O-])cc1)N1CCOCC1 | 176
21 | COc1ccc(/C(=C/C(=O)N2CCN(C(=O)c3cc(OC)c(OC(C)=O)c(OC)c3)CC2)c2ccccc2Cl)cc1 | 191 to 194
22 | CN1CC(c2cc3ccccc3o2)CC1=O (centres undefined) | 73
23 | CC(C)NNc1ncnc2c1cnn2C | 57
24 | COc1nc2cc(Cl)cc(CCCO)c2nc1OC | 104 to 105
25 | CCn1cc(C(=O)O)c(=O)c2cc(F)c(N3CCC(NC(=O)OC(C)(C)C)C3)c(C)c21 (centres undefined) | 184 to 188
26 | COc1ccc2oc3ccc(I)cc3c2c1C(=O)Nc1ccncc1 | 255 to 257

Row | Structure (SMILES) | melting point [°C]
27 | COc1ccc2c3c(c(=O)oc2c1)CN(Cc1cc(OC)c(OC)c(OC)c1)CC3 | 171 to 173
28 | CCP(CC)c1ccc(Cl)cc1 | 77 to 79
29 | CN1CCC(c2c(O)cc(O)c3c(=O)cc(-c4ccccc4Cl)oc23)C1CN (centres undefined) | 218 to 219
30 | CCc1cc(=O)c(C(=O)OC)c(CC)[nH]1 | 124 to 127
31 | CCCn1cnc2c1c(=O)n(CCCC(C)(C)O)c(=O)n2C | 96 to 98
32 | CCCCNc1nc(N)nc(NCCCC)n1 | 73
33 | COc1ccc2cc(C(=O)NCc3cc([N+](=O)[O-])cc([N+](=O)[O-])c3)c(=O)oc2c1 | 233
34 | N#Cc1ccc(NC(=O)c2ccc(-n3nc(C(F)(F)F)cc3C(F)(F)F)cc2)cc1 | 192 to 193
35 | O=C(Nc1ccc(N2CCOCC2=O)cc1)[C@H]1C[C@@H](O)CN1C(=O)Cc1ccc(Cl)cc1 | 141
36 | CN1Cc2c(I)ncn2-c2ccccc2C1=O | 174 to 176
37 | CC1(C)Oc2cnccc2C2OC21 (centres undefined) | 110 to 112
38 | OC(CCN1CCC(c2ccc(Cl)cc2)CC1)c1ccc(Cl)cc1 (centres undefined) | 152 to 154
39 | Cc1oc2cc(C3CC(=O)OC(=O)C3)ccc2c1C | 145 to 147
40 | NS(=O)(=O)c1ccccc1C1=CCCC1 | 112 to 113
41 | COC(=O)C(NC(=O)OC(C)(C)C)c1ccc(OS(=O)(=O)C(F)(F)F)cc1 (centres undefined) | 67 to 67.6
42 | Cc1ccc2c(N)c3c(nc2c1)CCSC3 | 239 to 245
43 | CCc1cc2c(s1)-c1ccccc1C(CC)N2S(=O)(=O)c1ccc(O)cc1 (centres undefined) | 119 to 122
44 | c1c(N2CCC3(CC2)OCCO3)nc(N2CCNCC2)nc1N1CCC2(CC1)OCCO2 | 122 to 126
45 | O=C(O)Cc1ccc(Oc2ccc3c(c2)S(=O)(=O)NC2CCCN32)cc1 (centres undefined) | 166 to 169
46 | N=C(NS(=O)(=O)C=Cc1ccc([N+](=O)[O-])cc1)c1ccc([N+](=O)[O-])cc1 | 173 to 177
47 | CC(C)(C)OC(=O)N1CCN(C2CCN(c3ccc(N)cc3C#N)CC2)CC1 | 172
48 | Clc1ccc(-c2ccc(C=CC3COC4(CCCCC4)OO3)cc2)cc1 (centres undefined) | 109 to 111
49 | COc1ccc2c(c1)c(C)cc(=O)n2-c1ccc(Cl)cc1 | 234 to 235
50 | O=C(O)/C=C/c1ccc(Oc2c(-c3ccccc3)c(C3CC3)cc3cc(O)ccc23)cc1 | 242 to 243
51 | NS(=O)(=O)c1ccc2c(c1)S(=O)(=O)NC1CCCN21 (centres undefined) | 260 to 262
52 | Cc1cc([N+](=O)[O-])c(O)c([N+](=O)[O-])c1C | 120 to 122

Results, then the molecule that gave them:

Row | melting point [°C] | Structure (SMILES)
53 | 125 to 128 | COCCS(=O)(=O)c1ccc(F)c(C#Cc2cc(Cl)ccc2OCC(=O)O)c1
54 | 240 to 244 | Cn1c2c(c3ccccc31)C(=O)NCC2
55 | 64 to 69 | CC(C)(C)OC(=O)NCC1=CC(c2ccccc2)Cc2c1ccc(OC(=O)C(C)(C)C)c2OC(=O)C(C)(C)C (centres undefined)
56 | 110 to 114 | O=C(C(=CO)c1ccccc1)c1ccccc1
57 | 246 | Cn1c(=O)[nH]c2cc(CN3CCN(C(c4ccccc4)c4ccccc4)CC3)ccc21
58 | 90 to 91 | COC(=O)c1cnnc2c(C)cccc12
59 | 148 to 150 | CCOC(=O)Cc1ccc(NC(=O)C(Cc2ccccc2)NS(=O)(=O)c2ccc(Cl)cc2)cc1 (racemic)
60 | 142 to 144 | Cc1cc(O)ccc1NCCCCCCBr
61 | 228 | CCN(CC)c1ccc(C=NNC(=O)c2ccc(O)cc2)cc1
62 | 160 to 162 | Cc1c(C(=O)Nc2ccc(OCC(C)C)c(C#N)c2)cnn1C
63 | 93 to 95 | CCC(/C=C(\OC)C(=O)OC)=C\c1cc2ccccc2[nH]1
64 | 186 | Cc1nc2c(CO)cccn2c(=O)c1CCN1CCC(c2noc3cc(F)ccc23)CC1
65 | 78 to 80 | CONC(=N)NC(=O)Nc1c(C)cccc1C
66 | 191 to 194 | O=C(NCc1ccc(Cl)cc1)c1cnc2ccc(I)cn2c1=O
67 | 53 to 54 | COC(=O)Oc1c(OC)c(OC)c(OC(=O)OC)c2ccccc12
68 | 238 to 240 | Cc1cncc(C(=O)Nc2cc(-c3c(-c4ccc(F)c(C)c4)nc4cccnn34)ccn2)c1
69 | 123 to 126 | O=C(O)c1ccc(NCCCCCCCc2ccccc2)cc1
70 | 143 | COc1cc(C(=O)Nc2cccc3c2CCN(C)C3)cc(OC)c1OC
71 | 96 to 98 | O=C1OC(=O)c2cc(OCCCOc3ccccc3)ccc21
72 | 68 | O=C(Cc1ccccc1Nc1c(Cl)cccc1Cl)OCCOCCOCCO[N+](=O)[O-]
73 | 212 to 215 | CCOC(=O)c1ncc2[nH]c3ccc(C(=O)OCc4ccccc4)cc3c2c1CC
74 | 98.5 to 100 | Cc1[nH]cnc1CSCCN=C(NCCCc1c[nH]cn1)NC(=O)c1ccccc1
75 | 147 to 149 | O=C(O)Cc1ccc2ncsc2c1
76 | 137 to 138 | CCCc1c(OCC(O)COc2ccc(CC(=O)O)cc2F)ccc(C(C)=O)c1O (centres undefined)
77 | 143 to 145 | COC(=O)C1=C(C)CN(c2ccccc2)C1=O
78 | 285 to 290 | NS(=O)(=O)c1ccc2[nH]cc(CCN3C(=O)c4ccccc4C3=O)c2c1

Row | melting point [°C] | Structure (SMILES)
79 | 78 to 80 | COC(=O)NCC1CN(c2ccc(-n3cnc(Cn4ccnc4)c3)c(F)c2)C(=O)O1 (centres undefined)
80 | 121 to 123 | COC(Cc1ccc(OCCN(C)c2nc3ccccc3o2)cc1)C(=O)O (centres undefined)
81 | 120 | CCC(O)C(O)c1ccc(OCc2ccc3ccccc3c2)c(OC)c1 (centres undefined)
82 | 142 | CCCC(=O)NNC(=O)c1ccncc1
83 | 138 | CNC(=O)c1cc(C(=O)c2ccccc2)ccc1[N+](=O)[O-]
84 | 260 to 261 | CCOC(=O)C1=C(C#N)Nc2nccn2C1c1cccc([N+](=O)[O-])c1 (centres undefined)
85 | 160 to 161 | Nc1c(CC(=O)N2CCC(O)CC2)cccc1Oc1ccccc1F
86 | 185 | O=C(O)CCCc1cc2nc(Cl)ccc2n1S(=O)(=O)c1ccc(C(F)(F)F)cc1
87 | 131 to 132 | COc1ccc(C(=NO)c2ccc(OC)cc2)cc1
88 | 236 to 237 | CC(C)OC(=O)Nc1ccc(C2=NNC(=O)CC2C)cc1 (centres undefined)
89 | 237 to 239 | O=c1n(CC(F)(F)F)c2ccccc2n1C1CCN(CCCCN2Cc3cc(Cl)ccc3S2(=O)=O)CC1
90 | 84 to 86 | CN(c1ccccc1)c1ncccc1NC(=O)c1ccccc1F
91 | 147 to 149 | O=C1CCCc2nc3ccccc3c(NCc3cccc(C(F)(F)F)c3)c21
92 | 105 to 107 | N=C(Nc1ccc(OCCNCc2ccccc2)cc1F)c1cccs1
93 | 169 | OCCNc1ncc(CN2CCN(c3ccccc3)CC2)c2nc(-c3ccco3)nn12
94 | 213 to 214 | CC(C)S(=O)(=O)Nc1ccc(C(=O)Nc2ccc(Br)cc2)cc1
95 | 90 to 95 | COc1c(OCc2ccc(-c3ccccc3S(=O)(=O)Nc3onc(C)c3C)c(COCCF)c2)cc(C)nc1C
96 | 164 to 165 | COc1cc(C=O)ccc1OCc1nc(-c2cccnc2)oc1C
97 | 211 to 217 | O=C(O)CCCc1cc2nc(Cl)ccc2n1S(=O)(=O)c1ccc(-c2cscn2)cc1
98 | 150 to 153 | CCC1(C)CC2(NC(=O)N(c3ccccc3)C2=O)C(C)C(C)(CC)N1 (centres undefined)
99 | 180 | Cc1csc2nc3ccccc3c(=O)n12
100 | > 300 | NCc1cccc(OCCSc2nc[nH]n2)c1
101 | 214 to 216 | CC(=O)SCC(Cc1ccccc1)C(=O)Nc1cc(C(=O)O)ccc1C (centres undefined)
102 | 189 to 190 | CCCCn1c(-c2ccccc2)nc(Cl)c1CC(=O)O
103 | 177 to 179 | N#Cc1ccccc1-n1nnc2cccnc21
104 | 268 to 269 | COc1ccc2c(c1)C(=O)c1nc3ccccc3c(=O)n1-2
